From US5670538A, “Use of prodelphinidins for obtaining medicaments intended for the treatment of arthrosis” (Laboratoires Dolisos, priority 1992, dated 1997)

How the values were obtained:
[1] = Antilipoperoxidizing activity (gamma irradiation, linoleic acid substrate, pentane); assay type: biochemical; settings: for % inhibition of pentane release from linoleic acid (lipid peroxidation): Substrate: Linoleic acid, relative to the controls
Method: 9. Antilipoperoxidizing activity
Similar to the preceding anti-radical method but where the KMB is replaced by linoleic acid (C18: 2), the gamma radiation releases pentane which is analyzed. The height of the pentane peak is proportional to the quantity free of radicals formed in the medium.

[2] = system: human articular chondrocytes; experiment: Radioimmunoassay of type II collagen (coll. II) produced in tridimensional culture of human chondrocytes; assay type: cell-based
Text: The model used for testing the proanthocyanidols, namely the tridimensional culture of human chondrocytes allows chondrorepair to be quantified by the production of matrix substances: type II collagen, proteoglycans, and chondroresorption by the reduction in the levels of prostaglandin E2 and of OH° and O°2 type free radicals produced.
1. Tridimensional culture of human chondrocytes
The technique used has been described in detail (Bassleer et al., 1986).
Briefly, human articular chondrocytes are cultivated in DMEM (Dulbecco's Modification of Eagle's Medium--ICN--Gand, Belgium) with either Ultroser G 1% (GIBCO, Gand, Belgium) or 10% of foetal calf serum (ICN--Gand--Belgium), and 50 μg of ascorbic acid/ml added to it. The cartilage originates from the apparently normal zone of heads of human femur suffering from arthrosis, immediately after an operation carried out to insert a total hip prosthesis; it can also originate from the head of a healthy femur, but which has undergone a traumatism and has had to be replaced. This cartilage is then digested by clostridial collagenase 1 mg/ml (Boehringer-Mannheim, Germany) in a buffer (NaCl 120 mM, CaCl2 1 mM, KCl 5 mM, KH2 PO4 1 mM, NaHCO3 25 mM, glucose 2 mM and Hepes 30 mM, pH 7.4) for 24 hours. After 6 successive washings and centrifugations, the chondrocytes, isolated from their matrix, are cultured in flasks (10^6 cells/2 ml of culture medium) placed on a gyrator (10 rpm). The cultures are kept at 37° C. in an atmosphere of air 95%-CO2 5% (Bassleer et al., 1986). Cultivated under these conditions, after 4 to 5 days the chondrocytes form a tridimensional cluster in each flask. These clusters, which at first have a flocculent appearance, then tend to condense during the culture. After two weeks, their diameter is, in general, from 1 to 2 mm.
The fresh weight of the clusters increases with the duration of the culture, above all during the few first days.
3. Radioimmunoassay of type II collagen (coll. II)
The method for the radioimmunoassay of coll. II has been described in detail (Henrotin et al., 1990). The coll. II is extracted from human articular cartilage according to the technique described by Herbage et al. (1977). The antiserum against coll. II was obtained from rabbits according to the technique of Vaitukaitis et al. (1971).
The assay is carried out by sequential saturation. In the first instance, the radioimmunoassay is carried out in a 0.3 ml volume consisting of 0.2 ml of incubation buffer (PBS-50 mM PO4, 300 mM NaCl, 5 g/l BSA (W/V), 6.7 mM sodium azide, pH 7.4) containing the reference coll. II (0.5 to 500 ng) or the sample to be assayed and 0.1 ml of anti-coll. II antiserum from guinea pigs diluted to 1/5000 (24 hours at 4° C.). In the second instance, 0.1 ml of ^125 I-coll. II tracer labelled according to the iodogenic technique (Salacynski et al., 1979 and diluted so as to obtain 20,000 cpm/0.1 ml) is added. After 24 hours at 4° C., the collagen-antibody complexes are separated from the free radioactive coll. II by the double antibody system (Franchimont et al. 1983). Sequential saturation gives a sensitivity of 3 ng/tube. The accuracy of the method is 10%. The coefficients of the intra- and inter assay variation are 10% and 20% respectively.
The assay is specific to human articular type II collagen.
No cross reaction is obtained with bovine collagen of type I, III or IV.
The culture media are stored at -20° C. in the presence of enzymatic inhibitors (Oegema et al., 1975). These media are assayed by the radio immunological method without any treatment beforehand. The chondrocyte clusters are washed and dissociated with ultrasonics according to the method described for the assay of the PGs. After centrifugation (1500 rpm, 10 minutes), the residue is extracted using 500 mM acetic acid under agitation for 24 hours at 4° C. The supernatant of the homogenate and the extract of the residue are mixed together and assayed after equilibration at pH 7.4 using 4M NaOH.
The recovery of coll. […]

## Oc1cc(O)c2c(c1)O[C@H](c1cc(O)c(O)c(O)c1)[C@@H](O)[C@@H]2c1c(O)cc(O)c2c1O[C@H](c1cc(O)c(O)c(O)c1)[C@@H](O)[C@@H]2c1c(O)cc(O)c2c1O[C@H](c1cc(O)c(O)c(O)c1)[C@@H](O)C2 [Substance Ic, GC-(4 alpha→8) GC-(4 a→8)-GC]
[1]; 10^-3 M
  % inhibition of pentane release from linoleic acid (lipid peroxidation): 91%
[1]; 10^-4 M
  % inhibition of pentane release from linoleic acid (lipid peroxidation): 40%
[1]; 10^-5 M
  % inhibition of pentane release from linoleic acid (lipid peroxidation): 0%
[1]; Table 23
  Production of free radicals from linoleic acid, effect in words: significantly inhibits
[2]; 1% Ultroser G, 1 μg/ml
  Average concentrations (m ± SD) of type II collagen in the clusters of chondrocytes at the end of 12 days of culture: 81 ± 6 ng per μg of DNA
  Collagen II in the clusters over 12 days, effect in words: stimulant
  Cumulative release of coll.II over 12 days, Abs: 256 ng/μg DNA/12 days
  Type II collagen released in the culture medium, effect in words: significant effect
[2]; 1% Ultroser G, 10 μg/ml
  Average concentrations (m ± SD) of type II collagen in the clusters of chondrocytes at the end of 12 days of culture: 94 ± 7 ng per μg of DNA
  Cumulative release of coll.II over 12 days, Abs: 292 ng/μg DNA/12 days
[2]; 1% Ultroser G, 100 μg/ml
  Average concentrations (m ± SD) of type II collagen in the clusters of chondrocytes at the end of 12 days of culture: 121 ± 13 ng per μg of DNA
  Cumulative release of coll.II over 12 days, Abs: 337 ng/μg DNA/12 days
[2]; 1% Ultroser G, culture time 0-4 days, 1 μg/ml
  Coll. II released in the culture medium: 149.4 ± 8.7 ng/μg DNA/96 h
[2]; 1% Ultroser G, culture time 0-4 days, 10 μg/ml
  Coll. II released in the culture medium: 162 ± 11 ng/μg DNA/96 h
[2]; 1% Ultroser G, culture time 0-4 days, 100 μg/ml
  Coll. II released in the culture medium: 182 ± 5.6 ng/μg DNA/96 h
[2]; 1% Ultroser G, culture time 0-8 days (so in the source), 1 μg/ml
  Coll. II released in the culture medium: 65.8 ± 7.4 ng/μg DNA/96 h
[2]; 1% Ultroser G, culture time 0-8 days (so in the source), 10 μg/ml
  Coll. II released in the culture medium: 70.5 ± 7.1 ng/μg DNA/96 h
[2]; 1% Ultroser G, culture time 0-8 days (so in the source), 100 μg/ml
  Coll. II released in the culture medium: 93.8 ± 10.5 ng/μg DNA/96 h
[2]; 1% Ultroser G, culture time 0-12 days (so in the source), 1 μg/ml
  Coll. II released in the culture medium: 41.2 ± 4.6 ng/μg DNA/96 h
[2]; 1% Ultroser G, culture time 0-12 days (so in the source), 10 μg/ml
  Coll. II released in the culture medium: 50.6 ± 4.2 ng/μg DNA/96 h
[2]; 1% Ultroser G, culture time 0-12 days (so in the source), 100 μg/ml
  Coll. II released in the culture medium: 61.1 ± 5.2 ng/μg DNA/96 h
[2]; Homo sapiens, Chondrocyte, 288 h, 1% Ultroser G, 1 μg/ml, control = 100, read-out: Cumulative release of coll.II over 12 days, %
  activity at 1 µg/mL: 134%
[2]; Homo sapiens, Chondrocyte, 288 h, 1% Ultroser G, 10 μg/ml, control = 100, read-out: Cumulative release of coll.II over 12 days, %
  activity at 10 µg/mL: 153%
[2]; Homo sapiens, Chondrocyte, 288 h, 1% Ultroser G, 100 μg/ml, control = 100, read-out: Cumulative release of coll.II over 12 days, %
  activity at 100 µg/mL: 176%
[2]; foetal calf serum, 10 and 100 μg/ml
  Type II collagen in the culture media, effect in words: increases
[2]; foetal calf serum, Table 18, 0-4 days, 10 μg/ml
  Coll. II released in the culture medium: 44.1 ± 6.98 ng/μg DNA/96 H
[2]; foetal calf serum, Table 18, 0-4 days, 100 μg/ml
  Coll. II released in the culture medium: 70.7 ± 10.3 ng/μg DNA/96 H
[2]; foetal calf serum, Table 18, 4-8 days, 10 μg/ml
  Coll. II released in the culture medium: 33.5 ± 3.71 ng/μg DNA/96 H
[2]; foetal calf serum, Table 18, 4-8 days, 100 μg/ml
  Coll. II released in the culture medium: 41.7 ng/μg DNA/96 H
[2]; foetal calf serum, Table 19, 0-4 days, 10 μg/ml
  Coll. II released in the culture medium: 37.9 ± 5.47 ng/μg DNA/96 H
[2]; foetal calf serum, Table 19, 0-4 days, 100 μg/ml
  Coll. II released in the culture medium: 53.2 ± 4.21 ng/μg DNA/96 H
[2]; foetal calf serum, Table 19, 4-8 days, 10 μg/ml
  Coll. II released in the culture medium: 23.3 ± 2.11 ng/μg DNA/96 H
[2]; foetal calf serum, Table 19, 4-8 days, 100 μg/ml
  Coll. II released in the culture medium: 33.5 ng/μg DNA/96 H
[2]; foetal calf serum, experiment 397, 4-8 days, 10 μg/ml
  Coll. II in the clusters: 85.9 ± 14.45 ng/μg DNA
[2]; foetal calf serum, experiment 397, 4-8 days, 100 μg/ml
  Coll. II in the clusters: 109.8 ng/μg DNA
[2]; foetal calf serum, experiment 397, 10 and 100 μg/ml
  Collagen II in the clusters, effect in words: An increase in collagen II is observed
